From publication PMC12040169 (PLOS Biology, 2025)

Test: in vitro
Details: human, hela cells

Compound | viability at 28.5 h, 10 µM
CC1CN(C(=O)COc2ccccc2OC(=O)N(C)C)CC(C)O1 (stereo not shown) [CBK057627] | 121%

Same assay, conditions: human, hela cells, % viability

Compound | viability at 28.5 h, 10 µM
O=C(O)COC(=O)C1C(c2ccccc2)C(C(=O)O)C1c1ccccc1 (stereo not shown) [CBK263881] | 85.9%
O=C(O)c1cccc(NC(=O)c2cccc(S(=O)(=O)N3CCc4ccccc4C3)c2)c1 [CBK265187] | 108%
CC(=O)NCCCCCC(=O)Nc1ccc(C(=O)O)cc1 [CBK287241] | 101%
O=C(O)CCC(=O)N1c2ccccc2CC1c1ccccc1 (stereo not shown) [CBK286860] | 91.1%
CCC(NC1CCc2nc(COC)nn2C1)C1CCC1 (stereo not shown) [CBK304739] | 87.8%
Cn1c(=O)oc2cc(NC(=O)CC3CCN(Cc4cccc(C(F)(F)F)c4)CC3)ccc21 [CBK285953] | 90%
CS(=O)(=O)Nc1nccnc1N1CCN(c2ccccc2)CC1 [CBK048688] | 91.8%
COc1c(C)cc(Br)cc1C(=O)Nc1ccccc1-c1nc2ccccc2s1 [CBK267155] | 99.8%
CSCCN1CCC2(CC1)CN(C(=O)C(C)C)c1ccccc12 [CBK131473] | 101%
Cc1cc(S(=O)(=O)N(c2ccc(C(C)(C)C)cc2)C2CCNCC2)c(C)s1 [CBK165075T] | 105%
Cn1nc(C2CCN(C(=O)c3cccc(F)c3)CC2)c2cccnc21 [CBK284898] | 94%
COc1ccc(-c2nnn(C3CCNCC3)n2)cc1OC [CBK269870C] | 85.3%
CCC(=O)Oc1ccc(C(=O)N2CCN(c3ccccc3F)CC2)cc1 [CBK307538] | 103%
COC(=O)CN1CCCC[C@H]2CN(C(=O)C3CCC3)C[C@H]21 [CBK285496] | 103%
O=C(Nc1ccc(-c2nc(-c3ccccc3)c3cc(NC(=O)c4cccs4)ccc3n2)cc1)c1cccs1 [CBK261547] | 86%
Cc1ccc(S(=O)(=O)c2cccc(S(=O)(=O)N3CCCCC3)c2)cc1S(=O)(=O)N1CCCCC1 [CBK262207] | 105%
COc1ccc(Cl)cc1CN(C)C(=O)c1cnn2cc(CCO)cnc12 [CBK307236] | 97.7%
CC(C)N1CCC(N(C)Cc2nc3ccccc3[nH]2)CC1 [CBK283021] | 105%
COc1ccccc1NC(=O)CSc1nc(O)c2c(C)cc(C)nc2n1 [CBK266095] | 91.8%
CC(C)(C)OC(=O)N1CCC(NCc2ccccn2)CC1 [CBK304603] | 97.1%
Cc1nc2c(c(N(C)C)n1)CCN(C(=O)C(C)n1cc(Cl)cn1)C2 (stereo not shown) [CBK307293] | 110%
O=S(=O)(c1ccccc1)N(CC(O)CN1CCCC1)c1cccc2ccccc12 (stereo not shown) [CBK264464C] | 93.9%

Compound | viability at 28.5 h, 10 µM
COc1ccccc1CN(CN1C(=O)c2ccccc2C1=O)CN1C(=O)c2ccccc2C1=O [CBK265039] | 94.9%
Cc1ccccc1Sc1cccc(C(F)(F)F)n1 [CBK115243] | 103%
Cc1cccc(C)c1-c1cn2ccnc2c(NC2CCOCC2)n1 [CBK037311] | 91.6%
COc1ccc(Nc2ccc(-c3cnc(OC)nc3OC)cn2)c(C)c1 [CBK036827] | 115%
O=C(Cn1cnc2c(cnn2-c2ccc(F)cc2)c1=O)NCc1ccccc1 [CBK287538] | 93.1%
CN1CCC(N(C)C(=O)Nc2ccc3c(c2)OCCO3)C1 (stereo not shown) [CBK156008] | 116%
COC(=O)c1scc(NS(=O)(=O)c2cccc(C(F)(F)F)c2)c1C(=O)OC [CBK026680] | 94.9%
CC(=O)Oc1cc2c(c(OC(C)=O)n1)C(C)NC2=O (stereo not shown) [CBK012390] | 94.9%
CSc1nc(O)nc(-c2ccccc2)n1 [CBK086310] | 95.4%
COc1ccc(C2NCCc3c2[nH]c2ccccc32)cc1CN1CCN(c2ccc(F)cc2)CC1 (stereo not shown) [CBK264178C] | 81.7%
CN(C)CCNc1nc(-c2ccncc2)cnc1N [CBK063580] | 102%
Cc1cccc(C)c1OCC(O)CNCCc1ccccc1 (stereo not shown) [CBK003072] | 107%
CSc1ncc(Cl)c(C(=O)Nc2sc3c(c2C(=O)NCC2CCCO2)CCC3)n1 (stereo not shown) [CBK268959] | 95%
CCC(Oc1ccccc1)C(=O)Nc1sc2c(c1C#N)CCCC2 (stereo not shown) [CBK262091] | 87.5%
Cc1cc(OCC(C)C)ccc1C(=O)C1=C(O)C(=O)N(Cc2cccnc2)C1c1cccnc1 (stereo not shown) [CBK264883] | 97.6%
O=C(C1CCN(S(=O)(=O)c2ccc(F)cc2)C1)N1CCN(C2CCCC2)CC1 (stereo not shown) [CBK285703] | 96.6%
COc1ccc(NC(=O)c2ccccc2CCc2ccccc2)c([N+](=O)[O-])c1 [CBK268632] | 97%
CC1CCc2c(sc3nc(SCC(=O)NC(c4ccccc4)c4ccccc4)nc(N)c23)C1 (stereo not shown) [CBK267274] | 91.1%
CN1CCCCCC1c1nc(-c2c[nH]c3ccccc23)nn1CCO (stereo not shown) [CBK306988] | 96%
CC(C)NC(=O)C1(Cc2ccccc2-c2ccncc2)CCOCC1 [CBK284786] | 94.1%
O=C1CCCN1CCOc1nccnc1-c1ccc(F)cc1 [CBK106895] | 98.7%
COCCN1CCN(c2nc(-c3ccncc3)nc3c2CCC3)CC1 [CBK306101] | 95.7%

Compound | viability at 28.5 h, 10 µM
CC(C)(C)c1ccc(-n2cc(-c3ccc(Cl)cc3)nn2)cc1 [CBK113031] | 102%
NC1OC(COC(=O)c2ccccc2)C(OC(=O)c2ccccc2)C1OC(=O)c1ccccc1 (stereo not shown) [CBK010282] | 95.3%
Cc1nn(CC(C)C)c(C)c1CCC(=O)N(C)Cc1c(C)nn(-c2ccccc2)c1C [CBK295301] | 108%
CCCCNc1cc(N2CCOC(c3cnn(CC)c3)C2)nc(N)n1 (stereo not shown) [CBK305423] | 93.8%
CN1C(=O)/C(=C2\SC(=S)N(C(CC(=O)O)C(=O)O)C2=O)c2ccccc21 (stereo not shown) [CBK261012] | 107%
O=C(O)CCCCC1SCC2NC(=O)NC21 (stereo not shown) [CBK012026G] | 105%
CN(C(=O)C1(C)CCOCC1)c1nc2c(s1)CC(c1ccccc1)CC2 (stereo not shown) [CBK305531] | 82.8%
O=C(O)CC1(CC(=O)N2CC[C@H]3NC(=O)N(c4ccc(F)cc4)C(=O)[C@H]32)CCCC1 [CBK289327] | 97.7%
Cn1nc(C2CC2)cc1NS(C)(=O)=O [CBK038148] | 93.9%
O=C(O)CCCC(=O)NNC(=O)c1cccc(Br)c1 [CBK263530] | 99.9%
Nc1ccc2c(O)c(C(=O)NCc3ccc(Cl)cc3)c(=O)[nH]c2c1 [CBK017557] | 91.4%
CN(C)CCN1C(=O)C(O)=C(C(=O)c2ccc(S(=O)(=O)N3CCOCC3)cc2)C1c1ccc(F)cc1 (stereo not shown) [CBK264683] | 104%
CC(C)Cn1c(CN2CCOCC2)nc2c1c(=O)n(C)c(=O)n2C [CBK305913] | 91.3%
NS(=O)(=O)c1ccc(NC(=S)NNS(=O)(=O)c2ccc(Br)cc2)cc1 [CBK266928] | 111%
Cc1cccn2c(=O)c(/C=C3\SC(=S)N(C(C)c4ccccc4)C3=O)c(NCCCn3ccnc3)nc12 (stereo not shown) [CBK263836] | 92.9%
CC(=O)NCC1CN(c2ccc3c(c2)CCN3C(=O)OC(C)(C)C)C(=O)O1 (stereo not shown) [CBK012600] | 99.7%
COc1ccc(OCCNC(=O)c2ccc(-c3ccccc3C)nc2N2CCN(C(=O)c3ccco3)CC2)cc1 [CBK076207] | 85.6%
O=C(O)CCN1CCN(c2ccc(F)cc2)CC1 [CBK287262] | 79.6%
O=C(CC1CCCCC1)Nc1ccc(Cl)nc1 [CBK091349] | 83.5%
O=C(Nc1cccc(C(F)(F)F)c1)c1c(O)c2ccccc2[nH]c1=O [CBK159985] | 93.2%
Cc1cc(Oc2ccc(N(C)C)cc2)cc(C2CCCNC2)n1 (stereo not shown) [CBK283442] | 101%
N#Cc1ccc(CNC2(Cc3cc(-c4ccc(F)cc4)on3)COC2)cc1 [CBK289653] | 87.3%

Compound | viability at 28.5 h, 10 µM
Cc1cc(OCC(=O)O/N=C(\N)Cc2ccc([N+](=O)[O-])cc2)ccc1Cl [CBK264322] | 98.2%
N=C(N)SCCCCSC(=N)N [CBK278304B] | 102%
CN1CCC[C@H]1C(=O)N1CCN(c2ncccn2)CC1 [CBK144528] | 93.4%
Cc1cc(NC(=O)c2cccc(C#N)c2)c2ccccc2n1 [CBK116267] | 101%
COc1ccc(C(=O)N2CCN(CC(=O)N3CCOCC3)CC2)cc1 [CBK133150] | 108%
COc1ccc(Nc2nc(-c3ccc(F)cc3)cs2)c(OC)c1 [CBK131705] | 87.5%
FC(F)(F)c1nnc(-c2cc3sccc3s2)o1 [CBK006303] | 96.4%
O=C(N/N=C/c1ccc(OC(=O)c2cccs2)cc1)c1ccccn1 [CBK262178] | 107%
O=c1c2c3c(sc2n2c(S)nnc2n1Cc1ccccc1)CN(Cc1ccccc1)CC3 [CBK262973] | 95%
Cn1cc(CCC(=O)N2CCN(Cc3ccccn3)CC2)cn1 [CBK305094] | 113%
Cn1cnnc1SCCNC(=O)N1CCc2sccc2C1 [CBK307385] | 97.3%
Cn1cc(NC(=O)N2CCCN(Cc3ccccn3)CC2)nn1 [CBK307034] | 86.8%
O=S(=O)(O)c1ccc(N/N=C/c2cccc(/C=N/Nc3ccc(S(=O)(=O)O)cc3)c2)cc1 [CBK278204N] | 89%
CC(=O)N1CCCN(C(=O)c2ncoc2-c2ccc(F)cc2)CC1 [CBK282398] | 85.2%
c1cncc(-c2csc(Nc3nc4cc5c(cc4s3)OCO5)n2)c1 [CBK287490] | 87.2%
CCC(CO)Nc1nc(-c2ccc(O)cc2)cn2ccnc12 (stereo not shown) [CBK037471] | 106%
FC(F)(F)c1ccccc1/C=N/n1c(S)nnc1COc1ccccc1 [CBK265260] | 99.7%
CCOc1ccc(-c2ccnc(N3CCOC(CN)C3)n2)cc1C(=O)O (stereo not shown) [CBK307644] | 84%
O=C(CN1CCCC1)N1CCC(c2cccc(Cc3ccc(C(F)(F)F)cc3)n2)CC1 [CBK286215] | 106%
Cc1cccc(C(=O)NNC(=O)c2cccc(Cl)c2)c1 [CBK261676] | 107%
Cn1c2c(c(=O)n(C)c1=O)[C@@H]1C(C[C@](O)(CO)[C@H]1O)C1(CCC1)N2 (stereo partly shown) [CBK303264] | 118%
